Laboratory results published in the SangsterLogP compilation.

Key:
[1] = method code SF-AS, from PMID: 6889867; settings: for logD: pH 7.4
[2] = method code SF, from PMID: 6889867; settings: pH 7.4

Row | Compound | logD [1] | logP [1] | other results
1 | CCOc1cc(Cc2cnc(N)nc2N)cc(OCC)c1-n1cccc1 | 2.74 |  | 
2 | COc1c(C)cc(Cc2cnc(N)nc2N)cc1C |  | 2.19 | 
3 | COc1cc(Cc2cnc(N)nc2N)cc(OC)c1Br | 1.82 |  | 
4 | COC(=O)c1c(OC)cc(Cc2cnc(N)nc2N)cc1OC | 0.76 |  | 
5 | CCOc1cc(Cc2cnc(N)nc2N)cc(OCC)c1C(=O)CS(C)(=O)=O |  | 0.79 | 
6 | C=C(C)c1c(OC)cc(Cc2cnc(N)nc2N)cc1OCC |  | 2.65 | 
7 | COc1cc(Cc2cnc(N)nc2N)cc(OC)c1-n1cccc1 |  | 1.78 | 
8 | CCOc1cc(Cc2cnc(N)nc2N)cc(OCC)c1N | 1.5 |  | 
9 | COc1cccc(Cc2cnc(N)nc2N)c1 |  | 1.54 | 
10 | COc1cc(OC)c(OC)cc1Cc1cnc(N)nc1N |  | 1.17 | 
11 | CCOc1cc(Cc2cnc(N)nc2N)cc(OCC)c1C(C)=O | 1.85 |  | 
12 | COc1cc(Cc2cnc(N)nc2N)cc(OC)c1Cl |  | 1.87 | 
13 | COc1cc(Cc2cnc(N)nc2N)cc(OC)c1C(C)(C)O | 1.3 |  | 
14 | COc1cc(Cc2cnc(N)nc2N)cc(OC)c1I | 2.21 |  | 
15 | COc1cc(Cc2cnc(N)nc2N)ccc1C(C)(C)O |  | 1.38 | 
16 | COc1cc(Cc2cnc(N)nc2N)cc(OC)c1C(C)C | 3.18 |  | 
17 | COc1cc(Cc2cnc(N)nc2N)ccc1OCc1ccccc1 |  | 2.66 | 
18 | COc1ccc(Cc2cnc(N)nc2N)c(OC)n1 | 1.83 |  | 
19 | CCOc1cc(Cc2cnc(N)nc2N)cc(OC)c1C(C)(C)O | 1.92 |  | 
20 | COc1cc(Cc2cnc(N)nc2N)cc(O)c1O |  | -0.31 | 
21 | COc1cc(Cc2cnc(N)nc2N)cc(OCc2ccccc2)c1OCc1ccccc1 | 3.9 |  | 
22 | Nc1ncc(Cc2ccc3c(c2)OCO3)c(N)n1 | 1.3 |  | 
23 | COc1ccc(Cc2cnc(N)nc2N)cc1OCc1ccccc1 |  | 2.44 | 
24 | Nc1ccc(Cc2cnc(N)nc2N)cc1 |  | 0.22 | 
25 | COc1cc(Cc2cnc(N)nc2N)cc(OC)c1O |  | 0.37 | 

Row | Compound | logD [1] | logP [1] | other results
26 | COc1cc(Cc2cnc(N)nc2N)cc2c1OCO2 | 1.19 |  | 
27 | COc1cc(Cc2cnc(N)nc2N)ccc1C | 1.95 |  | 
28 | CCOc1c(OC)cc(Cc2cnc(N)nc2N)cc1OC |  | 1.34 | 
29 | COc1cc(Cc2cnc(N)nc2N)cc(I)c1OC | 2.14 |  | 
30 | COc1c(O)cc(Cc2cnc(N)nc2N)cc1O |  | -0.04 | 
31 | COc1cc(Cc2cnc(N)nc2N)cc(OC)c1C(=O)CS(C)(=O)=O |  | -0.31 | 
32 | COc1cc(C)c(Cc2cnc(N)nc2N)cc1OCc1ccccc1 |  | 2.69 | 
33 | Nc1ncc(Cc2cc3c(cc2Br)OCO3)c(N)n1 | 2.3 |  | 
34 | COc1cc(Cc2cnc(N)nc2N)cc(OC)c1C(C)=O | 0.91 |  | 
35 | CCOc1cc(Cc2cnc(N)nc2N)cc(OCC)c1C(C)(C)O | 2.3 |  | 
36 | COc1cc(Cc2cnc(N)nc2N)c(Cl)c(OC)c1 | 1.94 |  | 
37 | CNc1cc(Cc2cnc(N)nc2N)cc(N(C)C)c1OC | 1.56 |  | 
38 | CCOC(=O)c1c(OCC)cc(Cc2cnc(N)nc2N)cc1OCC | 2.09 |  | 
39 | COc1cc(Cc2cnc(N)nc2N)cc(OC)c1SC |  | 1.54 | 
40 | Nc1ncc(Cc2cc(Cl)c(Cl)cc2Cl)c(N)n1 | 3.6 |  | 
41 | CCOC(=O)c1c(OC)cc(Cc2cnc(N)nc2N)cc1OC |  | 1.25 | 
42 | CNc1cc(Cc2cnc(N)nc2N)cc(N(C)C(C)=O)c1C |  | 0.53 | 
43 | COc1cc(Cc2cnc(N)nc2N)ccc1SC | 1.73 |  | 
44 | COc1cc(Cc2cnc(N)nc2N)cc(OC)c1C#N | 1.2 |  | 
45 | COc1cc(Cc2cnc(N)nc2N)cc(OC)c1OCC#N |  | 0.72 | 
46 | Cc1cc2c(cc1Cc1cnc(N)nc1N)OCO2 | 1.7 |  | 
47 | COc1ccc(Cc2cnc(N)nc2N)cc1O | 0.55 |  | 
48 | Nc1ncc(Cc2cc(Cl)c(Cl)c(Cl)c2)c(N)n1 | 3.45 |  | 
49 | COc1c(Cl)cc(Cc2cnc(N)nc2N)cc1Cl |  |  | logD [2]: 2.59
50 | COc1cc(Cc2cnc(N)nc2N)cc(OC)c1C(=O)OC(C)C |  | 1.72 | 

Row | Compound | logD [1] | logP [1] | other results
51 | COc1cc(Cc2cnc(N)nc2N)ccc1O |  | 0.64 | 
52 | Cc1c(N(C)C)cc(Cc2cnc(N)nc2N)cc1N(C)C |  | 2.06 | 
53 | COc1c(N(C)C)cc(Cc2cnc(N)nc2N)cc1N(C)C | 1.86 |  | 
54 | COc1cc(Cc2cnc(N)nc2N)cc(OC)c1OCc1ccccc1 |  | 2.46 | 
55 | COCCOc1c(OC)cc(Cc2cnc(N)nc2N)cc1OC |  | 0.56 | 
56 | COc1cncc(OC)c1Cc1cnc(N)nc1N | 1.48 |  | 
57 | COc1cc(Cc2cnc(N)nc2N)cc(OC)c1C(=O)N(C)C |  | -0.21 | 
58 | CN(C)c1cc(Cc2cnc(N)nc2N)cc(N(C)C)c1 |  | 1.6 | 
59 | CCCCOc1cc(Cc2cnc(N)nc2N)c(C)cc1OC |  | 2.78 | 
60 | COc1cc(Cc2cnc(N)nc2N)cc(C)c1OC |  | 1.62 | 
61 | COc1ccc(Cc2cnc(N)nc2N)cc1OC |  | 0.97 | 
62 | COCc1c(OC)cc(Cc2cnc(N)nc2N)cc1OC |  | 1.19 | 
63 | COc1cc(C)c(Cc2cnc(N)nc2N)cc1OC |  | 1.23 | 
64 | COC(=O)COc1c(OC)cc(Cc2cnc(N)nc2N)cc1OC |  | 0.55 | 
65 | COc1cc(Cc2cnc(N)nc2N)cc(OC)c1CO |  | 0.42 | 
66 | COc1c(OCc2ccccc2)cc(Cc2cnc(N)nc2N)cc1OCc1ccccc1 | 3.7 |  | 
67 | CNc1cc(Cc2cnc(N)nc2N)cc(NC)c1 |  | 0.44 | 
68 | CCSc1c(OC)cc(Cc2cnc(N)nc2N)cc1OC |  | 1.79 | 
69 | O=C1CN=C(c2ccccc2F)c2cc(I)ccc2N1CC(O)CO (centres undefined) | 1.81 |  | 
70 | COc1cc(Cc2cnc(N)nc2N)cc(OC)c1N | 0.6 |  | 
71 | C=CCc1c(OCC)cc(Cc2cnc(N)nc2N)cc1OCC | 2.89 |  | 
72 | COc1cc(Cc2cnc(N)nc2N)cc(OCc2ccccc2)c1OC |  | 2.37 | 
73 | COc1cc(Cc2cnc(N)nc2N)cc(Cl)c1OC | 1.73 |  | 
74 | COc1cc(OC)c(Cl)c(Cc2cnc(N)nc2N)c1Cl | 2.32 |  | 
